# In US20050282910A1, “Methods of application of chemical compounds having therapeutic activities in treating cancers” (priority 2003, published 2005):
# Like-named read-outs stand apart in the source and are kept apart here.
# What was measured:
# [1] = system: human leukemia MDR cell line K562/adr; test: Reversal of P-glycoprotein-mediated drug resistance by Schisandrin A, Schisandrol A, Schisantherin A, MTT cytotoxicity of anticancer agents; type: cell-based; conditions: for IC50: Homo sapiens; for IC50 (ng/ml) +Schisandrin A: anticancer agent in the presence of Schisandrin A (10 μg/ml); for IC50 (ng/ml) +Schisantherin A: anticancer agent in the presence of Schisantherin A (10 μg/ml)
# Method: Assays were carried out in triplicate against human leukemia MDR cell line K562/adr, human breast cancer MDR cell line MCF7/adr, and human epidermoid carcinoma MDR cell line KBv200.
# MRP1 = biological target: T1, MRP1 (Homo sapiens, UniProt P33527); test: Daunorubicin accumulation in HL60/adr cells (MRP1-mediated drug efflux), flow cytometry; type: cell-based; conditions: 2 μg/ml daunorubicin
# T1 construct: human cancer cell line HL60/adr, an MDR cell line characterized by MRP1 overexpression; endogenous in cells; host or cells: HL60/adr (human MDR cancer cell line)
# T1 sequence (P33527 whole entry): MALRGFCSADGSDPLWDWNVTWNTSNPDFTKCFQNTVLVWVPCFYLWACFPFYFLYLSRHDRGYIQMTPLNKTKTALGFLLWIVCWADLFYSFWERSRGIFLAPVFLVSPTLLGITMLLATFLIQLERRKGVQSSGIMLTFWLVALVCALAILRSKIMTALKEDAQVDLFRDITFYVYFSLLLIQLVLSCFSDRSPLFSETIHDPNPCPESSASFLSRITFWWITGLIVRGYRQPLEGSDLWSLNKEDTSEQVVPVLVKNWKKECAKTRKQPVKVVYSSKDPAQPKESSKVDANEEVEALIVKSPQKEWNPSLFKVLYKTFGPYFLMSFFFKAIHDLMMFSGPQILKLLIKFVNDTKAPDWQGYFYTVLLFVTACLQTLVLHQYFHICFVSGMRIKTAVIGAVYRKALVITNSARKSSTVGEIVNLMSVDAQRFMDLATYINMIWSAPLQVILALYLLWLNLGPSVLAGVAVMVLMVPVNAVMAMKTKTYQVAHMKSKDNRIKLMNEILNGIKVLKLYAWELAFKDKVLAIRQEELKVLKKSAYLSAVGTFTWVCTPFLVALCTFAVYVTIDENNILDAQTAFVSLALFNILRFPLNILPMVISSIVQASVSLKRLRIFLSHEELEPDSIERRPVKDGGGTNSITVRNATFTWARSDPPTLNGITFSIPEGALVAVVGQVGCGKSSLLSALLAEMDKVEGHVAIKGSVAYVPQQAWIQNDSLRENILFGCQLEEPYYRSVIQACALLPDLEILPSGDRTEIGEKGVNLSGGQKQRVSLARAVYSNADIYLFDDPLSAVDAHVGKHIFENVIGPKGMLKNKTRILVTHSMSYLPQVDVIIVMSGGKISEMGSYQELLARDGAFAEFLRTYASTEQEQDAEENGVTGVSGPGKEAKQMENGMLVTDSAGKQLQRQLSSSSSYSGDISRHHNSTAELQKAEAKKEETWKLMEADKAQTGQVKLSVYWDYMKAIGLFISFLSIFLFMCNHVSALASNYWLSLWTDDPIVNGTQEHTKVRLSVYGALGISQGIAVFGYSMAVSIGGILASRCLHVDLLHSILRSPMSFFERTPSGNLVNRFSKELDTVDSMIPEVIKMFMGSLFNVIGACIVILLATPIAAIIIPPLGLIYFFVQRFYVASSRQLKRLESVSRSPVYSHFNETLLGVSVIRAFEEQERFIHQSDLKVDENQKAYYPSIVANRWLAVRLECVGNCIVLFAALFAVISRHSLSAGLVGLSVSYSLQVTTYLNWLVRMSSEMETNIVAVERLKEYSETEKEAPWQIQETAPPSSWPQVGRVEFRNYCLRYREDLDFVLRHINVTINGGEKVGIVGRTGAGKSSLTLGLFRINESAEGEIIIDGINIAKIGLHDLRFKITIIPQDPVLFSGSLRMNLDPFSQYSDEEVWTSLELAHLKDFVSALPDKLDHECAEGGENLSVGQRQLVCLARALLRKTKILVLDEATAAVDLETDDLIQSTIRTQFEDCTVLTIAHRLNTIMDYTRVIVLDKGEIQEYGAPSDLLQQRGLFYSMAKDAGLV
# From the text: MRP1 functions as a drug pump that unilaterally pumps the anticancer agents out of MDR cancer cells. Inhibition of MRP1 results in an increase of intracellular drug concentration within cancer cells.
# HL60/adr = test: Reversal of MRP1-mediated drug resistance, MTT cytotoxicity of anticancer agents; type: cell-based, human; conditions: for drug sensitivity of HL60/adr toward the anticancer agents (in words): compound 10 μg/ml; for IC50 (ng/ml) +Schisandrin B: anticancer agent in the presence of Schisandrin B (10 μg/ml); for IC50: Homo sapiens, HL60/ADR, 72 h
# Method: Assays were carried out in triplicate against MDR cancer cell HL60/adr. MTT assays as described previously (X.
# [2] = system: human breast cancer MDR cell line MCF7/adr; conditions: for IC50 (ng/ml) +Schisandrin A: anticancer agent in the presence of Schisandrin A (10 μg/ml); for IC50 (ng/ml) +Schisandrin A / IC50 (ng/ml) +Schisantherin A: 72 hours; for IC50 (ng/ml) +Schisantherin A: anticancer agent in the presence of Schisantherin A (10 μg/ml)
# [3] = system: human breast cancer MDR cell line MCF7/adr; test: cells; conditions: NCI/ADR-RES, 72 h
# [4] = system: human epidermoid carcinoma MDR cell line KBv200; test: cells; conditions: KBv200, 72 h
# [5] = system: human epidermoid carcinoma MDR cell line KBv200; conditions: for IC50 (ng/ml) +Schisandrin A: anticancer agent in the presence of Schisandrin A (10 μg/ml); for IC50 (ng/ml) +Schisandrin A / IC50 (ng/ml) +Schisantherin A: 72 hours; for IC50 (ng/ml) +Schisantherin A: anticancer agent in the presence of Schisantherin A (10 μg/ml)
# MCF7/adr = test: Reversal of drug resistance by ethanol extracts of Schisandra chinensis fruit, MTT cytotoxicity of anticancer agents; conditions: for IC50: Homo sapiens, NCI/ADR-RES, 72 h, read-out: IC50 (ng/ml) −ethanol extract; for IC50 (ng/ml) +ethanol extract: anticancer agent in the presence of ethanol extracts (50 μg/ml), 72 hours
# K562/adr = test: as above; type: cell-based, human; conditions: for IC50 (ng/ml) +ethanol extract: anticancer agent in the presence of ethanol extracts (50 μg/ml)
# Method: Assays were carried out in triplicate against human MDR cancer cell lines K562/adr, KBv200, and MCF7/adr. […] Alternatively, flow cytometry assays using FACS Calibur equipped with software Cellquest 3.1f (Becton-Dickinson, Holbrook, N.J.) were applied to count the cell numbers in each sample.
# KBv200 = test: as above; conditions: Homo sapiens, KBv200, 72 h, read-out: IC50 (ng/ml) −ethanol extract
# MCF7 = test: Enhancement of anticancer agent-induced apoptosis and necrosis, Anexin V-FITC/PI; type: cell-based, human; conditions: 48 hours; for Apoptotic + necrotic (%): MCF7, doxorubicin 0.5 μg/ml, Schisandrin B 20 μg/ml
# Method: (§1) To illustrate the activities of Schisandrin B or its analogs enhancing the apoptosis of cancer cells induced by an anticancer agent according to the present disclosure, human cancer cell line SMMC7721, a non-drug-resistant hepatic cancer cell line, and MCF7, a non-drug-resistant breast cancer cell line, were selected for use. Assays were carried out in triplicates against SMMC7721 or MCF7. […] Cells were collected and the apoptotic cells and necrotic cell percentages were determined using Anexin V-FITC/PI kit (Sigma, St. Louis, Mo., USA) according to manufacturer's instructions. Alternatively, the apoptotic and necrotic cell percentages were measured using DNA Plus kit (Becton-Dickinson, USA) according to the manufacturer's instructions.
# SMMC7721 = test: as above; type: cell-based, human; conditions: 48 hours; for Apoptotic(%) / Necrotic(%): doxorubicin 0.5 μg/ml
# Method: as §1
# [6] = read-out: IC50 (ng/ml) −Schisandrin A
# [7] = read-out: IC50 (ng/ml) −Schisantherin A
# [8] = HL60/adr, by Schisandrin B (10 μg/ml)
# [9] = HL60/adr, anticancer agent in the absence of Schisandrin B, 72 hours, read-out: IC50 (ng/ml) −Schisandrin B
# [10] = SMMC7721, Schisandrin B 20 μg/ml
# [11] = Schisandrin B 20 μg/ml with doxorubicin 0.5 μg/ml
smiles,measurement,setting,value
COc1cc2c(c(OC)c1OC)-c1c(cc(OC)c(OC)c1OC)C[C@H](C)[C@H](C)C2 [Schisandrin A],sensitivity of MDR cancer cell K562/adr to daunorubicin (in words),[1]; FIG. 3,increase the sensitivity
same,increase of sensitivity of K562/adr to daunorubicin,"[1]; Schisandrin A 1 μg/ml, FIG. 3",about 8 folds
same,increase of sensitivity of K562/adr to daunorubicin,"[1]; Schisandrin A 10 μg/ml, FIG. 3",~71 folds
same,increase of sensitivity of K562/adr to daunorubicin,"[1]; Schisandrin A 20 μg/ml, FIG. 3",~100 folds
same,daunorubicin accumulation within HL60/adr cells (in words),"MRP1; 60 minutes, FIG. 7",increased with the increasing concentration
same,drug sensitivity of HL60/adr toward the anticancer agents (in words),HL60/adr,enhanced
CC(=O)O[C@H]1C(=O)[C@@]2(C)[C@H]([C@H](OC(=O)c3ccccc3)[C@]3(O)C[C@H](OC(=O)[C@H](O)[C@@H](NC(=O)c4ccccc4)c4ccccc4)C(C)=C1C3(C)C)[C@]1(OC(C)=O)CO[C@@H]1C[C@@H]2O [Taxol],IC50 (ng/ml) +Schisandrin A,[2],6.1 ± 1.9 ng/mL
same,IC50 (ng/ml) +Schisantherin A,[2],6.3 ± 3.1 ng/mL
same,RF (reversal folds of drug resistance),[2]; by Schisandrin A (10 μg/ml),6.6
same,RF (reversal folds of drug resistance),[2]; by Schisantherin A (10 μg/ml),6.4
same,IC50,[3]; [6],40.5 ± 11 ng/mL
same,IC50,[3]; [7],40.6 ± 20.3 ng/mL
same,IC50,[4]; [6],20.2 ± 2.8 ng/mL
same,IC50,[4]; [7],20.2 ± 3.8 ng/mL
same,IC50 (ng/ml) +Schisandrin A,[5],1.91 ± 1.2 ng/mL
same,IC50 (ng/ml) +Schisantherin A,[5],2.4 ± 0.7 ng/mL
same,RF (reversal folds of drug resistance),[5]; by Schisandrin A (10 μg/ml),10.6
same,RF (reversal folds of drug resistance),[5]; by Schisantherin A (10 μg/ml),8.4
same,IC50,"[1]; K562/Adr, 72 h, K562/adr, anticancer agent in the absence of Schisandrin A, 72 hours, read-out: IC50 (ng/ml) −Schisandrin A",38 ± 11 ng/mL
same,IC50,"[1]; K562/Adr, 72 h, K562/adr, anticancer agent in the absence of Schisantherin A, 72 hours, read-out: IC50 (ng/ml) −Schisantherin A",38 ± 12 ng/mL
same,IC50 (ng/ml) +Schisandrin A,"[1]; K562/adr, 72 hours",6.4 ± 3.2 ng/mL
same,IC50 (ng/ml) +Schisantherin A,"[1]; K562/adr, 72 hours",1.1 ± 1.0 ng/mL
same,RF (reversal folds of drug resistance),"[1]; K562/adr, by Schisandrin A (10 μg/ml)",5.9
same,RF (reversal folds of drug resistance),"[1]; K562/adr, by Schisantherin A (10 μg/ml)",34.5
same,IC50 (ng/ml) +Schisandrin A,"HL60/adr; HL60/adr, anticancer agent in the presence of Schisandrin A (10 μg/ml), 72 hours",4.1 ± 1.4 ng/mL
same,IC50 (ng/ml) +Schisandrin B,"HL60/adr; HL60/adr, 72 hours",<1 ng/mL
same,IC50 (ng/ml) +Schisantherin A,"HL60/adr; HL60/adr, anticancer agent in the presence of Schisantherin A (10 μg/ml), 72 hours",4.3 ± 1.4 ng/mL
same,RF (reversal folds of drug resistance),"HL60/adr; HL60/adr, by Schisandrin A (10 μg/ml)",7.8
same,RF (reversal folds of drug resistance),HL60/adr; [8],>3
same,RF (reversal folds of drug resistance),"HL60/adr; HL60/adr, by Schisantherin A (10 μg/ml)",7.4
same,IC50,"HL60/adr; HL60/adr, anticancer agent in the absence of Schisandrin A, 72 hours, read-out: IC50 (ng/ml) −Schisandrin A",32 ± 9 ng/mL
same,IC50,HL60/adr; [9],3 ng/mL
same,IC50,"HL60/adr; HL60/adr, anticancer agent in the absence of Schisantherin A, 72 hours, read-out: IC50 (ng/ml) −Schisantherin A",32 ± 9 ng/mL
same,IC50,MCF7/adr,73 ± 27 ng/mL
same,IC50 (ng/ml) +ethanol extract,MCF7/adr; MCF7/adr,25 ± 12 ng/mL
same,RF (reversal folds of drug resistance),"MCF7/adr; MCF7/adr, by ethanol extracts (50 μg/ml)",2.9
same,IC50,"K562/adr; Homo sapiens, anticancer agent in the absence of ethanol extracts, 72 hours, read-out: IC50 (ng/ml) −ethanol extract",110 ± 20 ng/mL
same,IC50 (ng/ml) +ethanol extract,K562/adr; 72 hours,41 ± 24 ng/mL
same,RF (reversal folds of drug resistance),K562/adr; by ethanol extracts (50 μg/ml),2.7
O=C1c2c(O)ccc(O)c2C(=O)c2c(NCCNCCO)ccc(NCCNCCO)c21 [Mitoxantrone],IC50 (ng/ml) +Schisandrin B,"HL60/adr; HL60/adr, 72 hours",<1 ng/mL
same,RF (reversal folds of drug resistance),HL60/adr; [8],>68
same,IC50,HL60/adr; [9],68 ng/mL
COc1cc([C@@H]2c3cc4c(cc3[C@@H](O[C@@H]3O[C@@H]5CO[C@@H](C)O[C@H]5[C@H](O)[C@H]3O)[C@H]3COC(=O)[C@H]23)OCO4)cc(OC)c1O [VP-16],IC50 (ng/ml) −Schisandrin B,"HL60/adr; HL60/adr, anticancer agent in the absence of Schisandrin B, 72 hours",>10000 ng/mL
same,IC50 (ng/ml) +Schisandrin B,"HL60/adr; HL60/adr, 72 hours",1490 ± 213 ng/mL
same,RF (reversal folds of drug resistance),HL60/adr; [8],>6.7
COc1cccc2c1C(=O)c1c(O)c3c(c(O)c1C2=O)C[C@@](O)(C(C)=O)C[C@@H]3O[C@H]1C[C@H](N)[C@H](O)[C@H](C)O1 [Daunorubicin],IC50 (ng/ml) +Schisandrin A,[2],245 ± 46 ng/mL
same,IC50 (ng/ml) +Schisantherin A,[2],58.8 ± 21 ng/mL
same,IC50,[3]; [6],2560 ± 413 ng/mL
same,IC50,[3]; [7],812 ± 193 ng/mL
same,IC50,KBv200,20 ± 8 ng/mL
same,IC50,[4]; [6],26.9 ± 8.1 ng/mL
same,IC50,[4]; [7],26.9 ± 4.3 ng/mL
same,IC50 (ng/ml) +Schisandrin A,[5],2.47 ± 0.9 ng/mL
same,IC50 (ng/ml) +Schisantherin A,[5],3.4 ± 1.3 ng/mL
same,IC50,"[1]; K562/adr, anticancer agent in the absence of Schisandrin A, 72 hours, read-out: IC50 (ng/ml) −Schisandrin A",4780 ± 1380 ng/mL
same,IC50,"[1]; K562/adr, anticancer agent in the absence of Schisantherin A, 72 hours, read-out: IC50 (ng/ml) −Schisantherin A",1300 ± 293 ng/mL
same,IC50 (ng/ml) +Schisandrin A,"[1]; K562/adr, 72 hours",67.2 ± 21.3 ng/mL
same,IC50 (ng/ml) +Schisantherin A,"[1]; K562/adr, 72 hours",71 ± 22 ng/mL
same,IC50,MCF7/adr,320 ± 71 ng/mL
same,IC50 (ng/ml) +ethanol extract,MCF7/adr; MCF7/adr,31 ± 10 ng/mL
same,IC50 (ng/ml) +ethanol extract,K562/adr; 72 hours,150 ± 19 ng/mL
COc1cccc2c1C(=O)c1c(O)c3c(c(O)c1C2=O)C[C@@](O)(C(=O)CO)C[C@@H]3O[C@H]1C[C@H](N)[C@H](O)[C@H](C)O1 [doxorubicin],Apoptotic + necrotic (%),MCF7,7.2 ± 0.8%
same,Apoptotic(%),SMMC7721; [10],5.2 ± 2.6%
same,Necrotic(%),SMMC7721; [10],16.5 ± 4.3%
same,IC50,"[1]; K562/Adr, read-out: IC50 of doxorubicin toward K562/adr, in the absence of Schisandrol A",875 ± 248 ng/mL
same,IC50,"[1]; K562/Adr, read-out: IC50 of doxorubicin toward K562/adr, in the presence of Schisandrol A (10 μg/ml)",168 ± 43 ng/mL
COc1cc2c(c(OC)c1OC)-c1c(cc3c(c1OC)OCO3)C[C@@H](C)[C@@H](C)C2 [Schisandrin B],Apoptotic + necrotic (%),MCF7,1.9 ± 0.1%
same,apoptosis and necrosis of MCF7 induced by doxorubicin (in words),MCF7; [11],significantly enhanced
same,Apoptotic(%),SMMC7721; [10],2.4 ± 2.1%
same,Necrotic(%),SMMC7721; [10],1.5 ± 0.9%
same,Apoptotic + necrotic (%),"SMMC7721; SMMC7721, vincristine 0.5 μg/ml, Schisandrin B 20 μg/ml",2.6 ± 0.4%
same,apoptosis and necrosis of SMMC7721 cells induced by doxorubicin (in words),SMMC7721; [11],significantly enhanced
same,apoptosis and necrosis of SMMC7721 induced by vincristine (in words),SMMC7721; Schisandrin B 20 μg/ml with vincristine 0.5 μg/ml,significantly enhanced
same,daunorubicin accumulation within HL60/adr cells (in words),"MRP1; 90 minutes, FIG. 6",increased proportionately with increasing concentration
same,daunorubicin accumulation in HL60/adr cells versus absence of Schisandrin B,"MRP1; Schisandrin B 20 μg/ml, 90 minutes, FIG. 6",4 folds
same,RF (reversal folds of vincristine resistance),"HL60/adr; HL60/adr, Schisandrin B 10 μg/ml",~10.5
same,RF (reversal folds of vincristine resistance),"HL60/adr; HL60/adr, Schisandrin B 20 μg/ml",>42
same,drug sensitivity of HL60/adr toward the anticancer agents (in words),HL60/adr,enhanced
